In patent US20050070594A1, “Use of angiotensin II receptor antagonists” (Boehringer Ingelheim International GmbH, priority 2003, published 2005):
Counter-ions that a name gives are not always drawn.

Tests used:
[1] = tested on: Adipose Protein 2 (aP2) expression; test: Stimulation of aP2 expression in 3T3-L1 cells (real time PCR); format: cell-based, mouse; settings: 10 μmol/L
Text: 3T3-L1 mouse preadipocytes are cultivated in DMEM (Dulbecco's modified eagle medium) with 10% foetal calf serum (FBS). PC12W cells are cultivated in DMEM with 5% FBS and 10% equine serum. In both cases the media contain 1% penicillin/streptomycin.
The differentiation of adipocytes is induced 2-3 days after cell confluence by adding a differentiating solution. This contains • 1 μmol/L of dexamethasone, • 0.5 mmol/L of 3-isobutyl-1-methylxanthine, • 1.67 μmol/L of insulin, and • 10% FBS.
Then the cells are stimulated for another 48 hours before finally being analysed (day 4).
RNA isolation, reverse transcription and quantification of gene expression are carried out using an ABI 7000 sequence detection system-for real time PCR (described in Janke et al, Diabetes 51:1699-707, 2002). The endogenous control used for the real time PCR consists of the household genes 18S rRNA and hypoxanthine guanine phosphoribosyl transferase (hprt).

[2] = target: T1, ligand binding domain of the human PPARgamma2 transcription factor (Gal4 DNA binding domain fusion) (Homo sapiens, UniProt P37231); test: Luciferase activity in stably transformed PPARgamma reporter cell line (CHO-K1 clone 11); format: cell-based; settings: 24 hours
T1 construct: codes for amino acids 205-505 of the human PPARgamma2 transcription factor; expressed in transfected cells
T1 sequence (P37231 205-505): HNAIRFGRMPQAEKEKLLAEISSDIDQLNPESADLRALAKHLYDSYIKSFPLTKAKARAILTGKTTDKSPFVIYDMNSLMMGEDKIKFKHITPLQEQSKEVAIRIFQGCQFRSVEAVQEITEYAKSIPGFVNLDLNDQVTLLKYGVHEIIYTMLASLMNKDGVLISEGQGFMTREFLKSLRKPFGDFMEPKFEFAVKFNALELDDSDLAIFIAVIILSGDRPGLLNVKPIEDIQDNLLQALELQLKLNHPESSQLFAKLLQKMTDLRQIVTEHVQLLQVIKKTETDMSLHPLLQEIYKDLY
Procedure: The resulting plasmid pFA-CMV/hPPARgamma2-LBD codes N-terminally of the PPARgamma-LBD in the same reading frame for a Gal4 DNA binding domain. In addition the plasmid codes for a neomycin resistance.
The cell line CHO-K1 (ATCC CCL-61) is cotransfected with the plasmids pFA-CMV/hPPARgamma2-LBD and pFR-Luc (Stratagene). pFR-Luc codes for the luciferase gene under the control of a five-times repeated yeast Gal4 binding site. The transfection is carried out with lipofectamine2000 in accordance with the manufacturer's instructions.
After six days' cultivation the cells are passaged and kept in culture for another 10 days. The resulting neomycin-resistant colonies are picked out under the microscope and transferred into 96 well-dishes and cultured.
The test substances are brought to 100 times the desired concentration with a suitable solvent, e.g. DMSO, and diluted 1:100 with the medium placed in the cell culture plate. The solvent used, e.g. DMSO, is used as the background control in the same concentration.
Luminescence is measured after a five minute wait using a Packard TopCount NXT. The luciferase activity is obtained by integrating the relative luciferase units (RLU) of the first ten seconds after the start of measurement.

[3] = target: T2, human PPARgamma-ligand binding domain (LBD) (Homo sapiens, UniProt P37231); test: SPA assay: displacement of 3H-labelled rosiglitazone from GST-PPARgamma-LBD; settings: NSB 217, Bmax 911
T2 sequence (P37231 205-505): T1 sequence (P37231 205-505)
T2 sequence (P19793 220-461 partner limits assumed): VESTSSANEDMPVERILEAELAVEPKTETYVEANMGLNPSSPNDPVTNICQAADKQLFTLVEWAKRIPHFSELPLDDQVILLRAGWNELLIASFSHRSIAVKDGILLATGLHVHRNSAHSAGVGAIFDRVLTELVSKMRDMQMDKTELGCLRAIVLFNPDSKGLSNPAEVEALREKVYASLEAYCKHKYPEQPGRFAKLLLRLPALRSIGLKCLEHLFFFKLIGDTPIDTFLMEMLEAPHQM
Procedure: Protein containing the human PPARgamma-ligand binding domain (LBD) is prepared as a GST fusion protein in E.coli and purified by affinity chromatography. To do this, a DNA section which codes for the amino acids 205-505 of the human PPARgamma2 transcription factor (cf. Genbank entry U79012) is subcloned via the additionally introduced restriction cutting sites BamH I and Xho I into the expression vector pGEX-4T-1 (Amersham) and the sequence of the section is monitored. […] The bacteria are pelleted after the induction and frozen in batches in PBS, pH 7.4. After opening up in a French Press, the dissolved GST-PPARgamma-LBD-fusion protein is purified using a GSTrap column (Pharmacia). Elution is carried out by the addition of 20 mM reduced glutathione. The GST-PPARgamma-LBD-protein fractions are desalinated using a HiTrap desalting column (Pharmacia) and the protein concentration is determined using a standard assay. Protein containing the human RXRalpha ligand binding domain (LBD) is prepared as a His tag fusion protein in E.coli and purified by affinity chromatography. To do this a DNA section which codes for the amino acids 220-461 of the human RXRalpha transcription factor (cf. Genbank entry NM_002957, nt 729-1457) is subcloned via the additionally introduced restriction cutting sites BamH I and Not I into the expression vector pET28c (Novagen) and the sequence of the section is monitored. […] The bacteria are pelleted after the expression and frozen in batches in PBS, pH 7.4. After opening up in a French Press, the dissolved His-RXRalpha-LBD-fusion protein is purified using a HiTrap chelating column (Pharmacia). Elution is carried out using a 500 mM imidazole step. The His-RXRalpha-LBD protein fractions are desalinated using a HiTrap desalting column (Pharmacia) and the protein concentration is determined using a standard assay. A description of the SPA assay format can be found in Mukheriee R et al., J Steroid Biochem Mol Biol (2002) 81:217-225.

[4] = animal model; cited from earlier work
[5] = target: T3, human PPARgamma-ligand binding domain (LBD) (Homo sapiens, UniProt P37231); test: AlphaScreen: recruiting of biotinylated LXXLL peptide of cofactor CBP to GST-PPARgamma-LBD; format: biochemical; settings: concentrations of up to 50 μM
T3 construct: codes for the amino acids 205-505 of the human PPARgamma2 transcription factor; made in house; host or cells: E. coli BL21(DE3), vector pGEX-4T-1
T3 sequence (P37231 205-505): T1 sequence (P37231 205-505)
Procedure: Protein containing the human PPARgamma-ligand binding domain (LBD) is prepared as a GST fusion protein in E.coli and purified by affinity chromatography. […] The fusion protein is expressed in the E.coli strain BL21(DE3) recommended for pGEX vectors after induction with 0.2 mM IPTG for 4 hours at 25° C. The bacteria are pelleted after the induction and frozen in batches in PBS, pH 7.4. After opening up in a French Press, the dissolved GST-PPARgamma-LBD-fusion protein is purified using a GSTrap column (Pharmacia). Elution is carried out by the addition of 20 mM reduced glutathione.
The GST-PPARgamma-LBD-protein fractions are desalinated using a HiTrap desalting column (Pharmacia) and the protein concentration is determined using a standard assay.
The assay buffer consists of 25 mM Hepes pH7.4, 100 mM NaCl,1 mM DTT, 0.1% Tween-20, 0.1% BSA. […] The final DMSO concentration in the assay is 1% (v/v). A 1% DMSO solution is used as the background control (NSB). The measurement is done using a Packard fusion measuring device.

[6] = Dissolution of active substances from tablets; format: physicochemical; settings: 900 ml 0.1 M phosphate buffer pH 7.5, 75 rpm

Row | SMILES | stimulation of aP2 expression, factor [1] | luciferase activity (MW) ([2]; 1.00E−04 M) | luciferase activity (MW) ([2]; 1.00E−05 M) | luciferase activity (MW) ([2]; 1.00E−06 M) | luciferase activity (MW) ([2]; 3.00E−05 M) | luciferase activity (MW) ([2]; 3.00E−06 M) | luciferase activity (MW) ([2]; 3.00E−07 M) | SPA signal, bound 3H-rosiglitazone (MW) ([3]; 1.00E−04 M test substance) | SPA signal, bound 3H-rosiglitazone (MW) ([3]; 1.00E−05 M test substance) | SPA signal, bound 3H-rosiglitazone (MW) ([3]; 1.00E−06 M test substance) | SPA signal, bound 3H-rosiglitazone (MW) ([3]; 1.00E−07 M test substance) | SPA signal, bound 3H-rosiglitazone (MW) ([3]; 3.00E−05 M test substance) | SPA signal, bound 3H-rosiglitazone (MW) ([3]; 3.00E−06 M test substance) | SPA signal, bound 3H-rosiglitazone (MW) ([3]; 3.00E−07 M test substance) | insulin sensitivity [4] | direct activation of the PPARgamma-LBD / recruiting of the LXXLL peptide [5] | dissolved after 30 minutes ([6]; first batch) | dissolved after 30 minutes ([6]; second batch) | dissolved after 30 minutes ([6]; third batch)
1 | CCc1ccc(CCOc2ccc(CC3SC(=O)NC3=O)cc2)nc1 (stereo not drawn) [pioglitazone] | 4.5±1 | – | – | – | – | – | – | – | – | – | – | – | – | – | – | – | – | – | –
2 | CCCCC1=NC2(CCCC2)C(=O)N1Cc1ccc(-c2ccccc2-c2nnn[nH]2)cc1 [irbesartan] | – | 29600 RLU | 3292 RLU | 657 RLU | 22133 RLU | 1028 RLU | 491 RLU | 510 | 723 | 815 | 913 | 648 | 779 | 810 | Improvement to the insulin sensitivity | does not result in any direct activation | – | – | –
3 | CCCc1nc2c(C)cc(-c3nc4ccccc4n3C)cc2n1Cc1ccc(-c2ccccc2C(=O)O)cc1 [telmisartan sodium salt] | – | – | – | – | – | – | – | – | – | – | – | – | – | – | – | – | 92±1.5% | 96±1.8% | 100±1.0%
4 | CCCCc1nc(Cl)c(CO)n1Cc1ccc(-c2ccccc2-c2nn[nH]n2)cc1 [losartan] | – | 11322 RLU | 709 RLU | 589 RLU | 3271 RLU | 672 RLU | 874 RLU | 611 | 787 | 901 | 915 | 784 | 814 | 835 | – | does not result in any direct activation | – | – | –
